According to patent US8883862B2, “Method for controlled release of parathyroid hormone from cross-linked hyaluronic acid hydrogel” (Kaohsiung Medical University, priority 2012, dated 2014):
Like-named read-outs stand apart in the source and are kept apart here.

Columns and labels:
[1] = Stability of PTH(1-34) under UV exposure (ELISA); format: physicochemical; settings: 10 minutes of UV exposure
Protocol: The hydrogel was fabricated by the photo-cross linking method. Briefly, 20 mg of methacrylated-hyaluronic acid (MeHA) was dissolved in 650 μL of stock solution (0.9% NaCl/4 mM HCl/0.1% BSA solution) and 100 μL of 0.07% (w/v) 12959 (Ciba specialty chemicals, Taiwan) was added to the solution. After complete dissolution, 250 μL of PTH(1-34) stock solution (10^−5 M) was added to the polymer solution and mixed completely. The mixture was transferred into glass syringe and exposed under UV light for 10 minutes. The resulting PTH/CLMH gel was washed with distilled water and then lyophilized. The morphology of the gel was examined using scanning electron microscopy (SEM) after gold coating of the samples on a stub.
The encapsulation and release kinetics are as follows: 200 μL of PTH(1-34)-loaded CLMH hydrogel (PTH/CLMH gel) suspended in 1 mL of 0.9% NaCl was crushed completely and collected the supernatant. Concentration of PTH(1-34) on the supernatant was measured using a commercially available PTH(1-34) ELISA kit following the manufacturer's instructions.

papain-induced OA = assay: Papain-induced OA in rat knees, histology of articular cartilage (GAG, type II collagen); format: in vivo, Rats; settings: OA group; intra-articular; PTH(1-34) 10 nM every 3 days, hydrogels every 10 days
Protocol: Rats were divided into the following 2 groups: OA group (OA induction with or without PTH(1-34) treatment) (n=5), non-OA group (n=5) injected with vehicle without PTH(1-34) treatment and OA induction. The right knees were the study joints. OA was induced in the right knees of rats in the OA groups with intra-articular injections of 20 ul of 4% papain solution and 20 ul of 0.03M cysteine. The injections were given with a 23-gauge needle via the patellar tendon on days 1, 4, and 7 of the example. In the OA group, after OA induction, the right knees were injected intra-articularly with 40 ul of 10 nM PTH(1-34) every 3 days or PTH/CLMH or CLMH every 10 days until rats were sacrificed. In the non-OA group, the same treatments were performed but without OA induction. Rats from each group were sacrificed by CO2 inhalation. Histologic analysis: After rats were sacrificed, the knees were harvested, and the tibia plateaus with articular cartilage were collected and fixed with 10% neutral buffered formalin prior to histologic preparation. The samples were then decalcified in 0.05M EDTA. The decalcified tibia articular samples were paraffin embedded, and […] microsections in the coronary plane were prepared. GAG was stained with Safranin O-fast green (1% Safranin 0 counterstained with 0.75% hematoxylin and then 1% fast green; Sigma) (dark color). […]

[2] = tested on: MC3T3-E1 (osteoblastic cells); assay: Bioactivity of released PTH(1-34): cAMP contents in cells; format: cell-based; settings: PTH(1-34) released from PTH/CLMH hydrogel at 2, 3, 4, 9, 10 and 11 days; 20 mins incubation
Protocol: The activity of controlled released PTH(1-34) was determined by measuring cAMP contents in cells treated with released PTH(1-34). For these examples, the MC3T3-E1 (osteoblastic cells) was cultured in phenol red-free α-MEM supplemented with 10% fetal bovine serum and […] ascorbic acid. The Cells were seeded into 24-well plates at a density of 50,000 cells/well. 0.25 mM isobutylmethylxanthine was used to inhibit cAMP degradation and incubated with released PTH(1-34) for 20 mins. The cells were lysed directly in the medium by adding 0.1N HCl. Intracellular cAMP was measured using a commercially available immunoassay kit (cayman) following the manufacturer's instructions.
Statistical analysis: Three independent cultures for biochemical analysis were tested. Each example was repeated at least three times, and data (expressed as mean±SEM) from a representative example are shown. Statistical significance was evaluated by one-way analysis of variance (ANOVA), and multiple comparisons were performed by Student's t-test. A p<0.05 was considered significant.

[3] = pulmonary route, cited from earlier work

SMILES: CC[C@H](C)[C@H](NC(=O)[C@H](CCC(=O)O)NC(=O)[C@H](CO)NC(=O)[C@@H](NC(=O)[C@@H](N)CO)C(C)C)C(=O)N[C@@H](CCC(N)=O)C(=O)N[C@@H](CC(C)C)C(=O)N[C@@H](CCSC)C(=O)N[C@@H](Cc1cnc[nH]1)C(=O)N[C@@H](CC(N)=O)C(=O)N[C@@H](CC(C)C)C(=O)NCC(=O)N[C@@H](CCCCN)C(=O)N[C@@H](Cc1cnc[nH]1)C(=O)N[C@@H](CC(C)C)C(=O)N[C@@H](CC(N)=O)C(=O)N[C@@H](CO)C(=O)N[C@@H](CCSC)C(=O)N[C@@H](CCC(=O)O)C(=O)N[C@@H](CCCN=C(N)N)C(=O)N[C@H](C(=O)N[C@@H](CCC(=O)O)C(=O)N[C@@H](Cc1c[nH]c2ccccc12)C(=O)N[C@@H](CC(C)C)C(=O)N[C@@H](CCCN=C(N)N)C(=O)N[C@@H](CCCCN)C(=O)N[C@@H](CCCCN)C(=O)N[C@@H](CC(C)C)C(=O)N[C@@H](CCC(N)=O)C(=O)N[C@@H](CC(=O)O)C(=O)N[C@H](C(=O)N[C@@H](Cc1cnc[nH]1)C(=O)N[C@@H](CC(N)=O)C(=O)N[C@@H](Cc1ccccc1)C(=O)O)C(C)C)C(C)C [PTH(1-34), teriparatide]
- stability of PTH(1-34) under UV exposure [1]: no significant adverse effect
- level of GAG in OA articular cartilage (papain-induced OA): could reverse papain-induced OA changes by increasing GAG level
- expression of cAMP [2]: increased expression of cAMP
- bioavailability ([3]; inhalation of dry powders): 34%
- bioavailability ([3]; intratracheal instillation): 40%
